Consider one compound from patent publication US5106853A, “Oxadiazole and its salts, their use in treating dementia” (Merck Sharp & Dohme, Ltd., priority 1989, dated 1992).

SMILES strings stand for the structures. Read-outs that look alike come from different tables or passages of the source.

For one assay, the target named is T1, M-3 receptor (Cavia porcellus, UniProt H0W1Z3).
T1 construct: from tissue; host or cells: guinea-pig myenteric plexus/longitudinal muscle strip
The assay can be described thus: Functional selectivity, guinea-pig myenteric plexus/longitudinal muscle strip (methods of J. Med. Chem. (1987), 30, 969-975). The assay is classed as cell-based. How it is done: (§1) B. By the methods disclosed in J. Med. Chem. (1987), 30, 969-975 was determined the functional selectivity of compound (I): […]

Another assay has as its target T2, M-1 receptor (Rattus norvegicus, UniProt P08482).
T2 construct: from tissue
T2 sequence (P08482 1-460): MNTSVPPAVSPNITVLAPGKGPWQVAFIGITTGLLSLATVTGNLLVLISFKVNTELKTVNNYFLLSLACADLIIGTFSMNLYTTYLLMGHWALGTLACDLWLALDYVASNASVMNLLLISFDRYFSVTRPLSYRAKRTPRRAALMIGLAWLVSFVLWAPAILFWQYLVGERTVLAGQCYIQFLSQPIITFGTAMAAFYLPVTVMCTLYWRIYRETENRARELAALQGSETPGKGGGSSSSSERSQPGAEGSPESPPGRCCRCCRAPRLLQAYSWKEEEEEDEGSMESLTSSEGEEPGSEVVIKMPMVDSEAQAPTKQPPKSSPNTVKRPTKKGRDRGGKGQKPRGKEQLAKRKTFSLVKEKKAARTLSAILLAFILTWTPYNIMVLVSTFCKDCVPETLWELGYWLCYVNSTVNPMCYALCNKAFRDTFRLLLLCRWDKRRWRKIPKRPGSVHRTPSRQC
Put plainly: Functional selectivity, rat superior cervical ganglion (methods of J. Med. Chem. (1987), 30, 969-975). The assay is classed as cell-based. The following applies: mean ± S.D. (n = 5). The protocol: as §1

Assay [1] concerns the target muscarinic acetylcholine receptors. Put plainly: NMS/OXO-M displacement: [3H]NMS and [3H]OXO-M Kapp (method of Br. J. Pharmacol. (1988), 93, 437-445). The following applies: for Kd: Kapp = corrected dissociation constant allowing for ligand occupancy. The assay is classed as binding. The protocol: A. By the method disclosed in Br. J. Pharmacol. (1988), 93, 437-445 were determined the NMS/OXO-M data for the compound (I): [^3 H]NMS Kapp =0.025 μM; [^3 H]OXO-M Kapp =0.0017 μM; ratio NMS/OXO-M=15; (Kapp =corrected dissociation constant allowing for ligand occupancy).

In another assay the target is T3, M-2 receptor (Cavia porcellus, UniProt H0VRN8).
T3 construct: from tissue; host or cells: guinea-pig atrium
T3 sequence (H0VRN8 1-466): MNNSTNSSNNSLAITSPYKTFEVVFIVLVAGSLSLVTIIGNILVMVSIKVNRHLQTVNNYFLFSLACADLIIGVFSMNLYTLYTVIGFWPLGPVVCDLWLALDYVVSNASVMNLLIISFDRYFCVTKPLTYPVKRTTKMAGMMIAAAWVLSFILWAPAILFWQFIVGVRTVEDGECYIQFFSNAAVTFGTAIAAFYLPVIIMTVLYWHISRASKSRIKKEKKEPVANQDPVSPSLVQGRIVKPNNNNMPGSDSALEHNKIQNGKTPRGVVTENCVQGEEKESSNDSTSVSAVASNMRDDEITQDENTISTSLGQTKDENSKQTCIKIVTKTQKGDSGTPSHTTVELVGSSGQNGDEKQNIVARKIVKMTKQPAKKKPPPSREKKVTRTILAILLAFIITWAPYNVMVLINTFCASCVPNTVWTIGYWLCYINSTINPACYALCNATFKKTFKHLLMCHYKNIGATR
Put plainly: Functional selectivity, guinea-pig atrium (methods of J. Med. Chem. (1987), 30, 969-975). The assay is classed as cell-based. How it is done: as §1

Setting [2] is: relative maximum, read-out: Rel. Max.

T1 sequence (H0W1Z3 1-590): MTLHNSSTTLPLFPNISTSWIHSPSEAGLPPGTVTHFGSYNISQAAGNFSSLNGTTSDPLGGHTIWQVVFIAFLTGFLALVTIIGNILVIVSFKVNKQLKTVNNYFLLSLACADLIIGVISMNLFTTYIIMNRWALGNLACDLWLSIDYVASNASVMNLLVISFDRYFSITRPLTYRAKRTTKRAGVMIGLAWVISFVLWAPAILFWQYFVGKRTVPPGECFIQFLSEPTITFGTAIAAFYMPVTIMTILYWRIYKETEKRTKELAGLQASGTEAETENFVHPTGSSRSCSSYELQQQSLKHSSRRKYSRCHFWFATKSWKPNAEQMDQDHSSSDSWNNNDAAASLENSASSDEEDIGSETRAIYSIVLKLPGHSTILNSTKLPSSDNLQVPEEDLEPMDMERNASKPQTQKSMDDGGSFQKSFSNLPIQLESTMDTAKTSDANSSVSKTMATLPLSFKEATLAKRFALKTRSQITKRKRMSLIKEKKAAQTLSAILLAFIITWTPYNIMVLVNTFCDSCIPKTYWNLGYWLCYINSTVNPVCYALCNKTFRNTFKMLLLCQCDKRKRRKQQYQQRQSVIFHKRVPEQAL

With `C1CC1c1noc([C@H]2CN3CC[C@H]2C3)n1` [compound (I), (3R, 4R)-3-(3-cyclopropyl-1,2,4-oxadiazol-5-yl)-1-azabicyclo[2.2.1]heptane], the Kb was 7.08 nM at M-3 receptor (95% confidence limits 7.90-8.40, n = 12, slope of Arunlakshana-Schild plot not significantly different from unity, read-out: pA2 (converted)) and 10 nM at M-2 receptor (95% confidence limits 7.80-8.20, n = 10, slope of Arunlakshana-Schild plot not significantly different from unity, read-out: pA2 (converted)). Besides, the values for the Emax at M-3 receptor (setting [2]), at M-1 receptor (setting [2]) and on M-2 receptor (setting [2]) were 0%, 55 ± 10% and 0%, respectively. Also, a half-maximal effect on M-1 receptor (EC50) was put at 63.1 nM. The Kd was found to be 25 nM in assay [1] (radioligand [3H]NMS, read-out: [3H]NMS Kapp) and 1.7 nM in assay [1] (radioligand [3H]OXO-M, read-out: [3H]OXO-M Kapp). In addition, the “ratio NMS/OXO-M” value in assay [1] (ratio of Kapp values) turned out to be 15.
